Measurements published in US20250019387A1 (Frontier Medicines Corporation, priority 0001, published 2025).

These molecules were tested against KRAS G12C and cRAF (Ras-binding domain) interaction (Homo sapiens (Human), UniProt P01116, C118S/C51S/C80L/G12C) (assay: Inhibition of KRAS G12C and cRAF binding (AlphaScreen)). Conditions: GMPPNP-loaded KRAS G12C, 19-20 hours incubation with compound; read-out: IC50 (Inhibition of KRAS G12C and cRAF Binding).
In short: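 IC50 values come from 4-parameter nonlinear regression of AlphaScreen signal (680 nm excitation, 570 nm emission). Compound plates sat 19-20 h at room temperature before RBD and donor/acceptor beads were added in Hepes pH 7.4 buffer with 150 mM NaCl, 5 mM MgCl2, 2% DMSO for 60-90 min; biotin-AviTag-GST replaced RBD to flag assay-technology interferers.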

Chain of KRAS G12C and cRAF (Ras-binding domain) interaction (P01116 other isoform, or with tags, fused parts or gaps G12C/C51S/C80L/C118S): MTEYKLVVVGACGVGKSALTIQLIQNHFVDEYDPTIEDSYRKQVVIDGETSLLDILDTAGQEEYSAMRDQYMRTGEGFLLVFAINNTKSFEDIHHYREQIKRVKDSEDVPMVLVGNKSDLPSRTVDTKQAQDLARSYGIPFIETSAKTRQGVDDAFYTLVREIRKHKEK

Row | SMILES | IC50
1 | COC(=O)/C=C/C(=O)NCCN(C)c1nc(OC[C@@H]2CCCN2C)nc2c1CCN(c1cccc3ccc(F)c(Cl)c13)C2 [Example 1, methyl(S,E)-4-((2-((7-(8-chloro-7-fluoronaphthalen-1-yl)-2-((1-methylpyrrolidin-2-yl)methoxy)-5,6,7,8-tetrahydropyrido[3,4-d]pyrimidin-4-yl)(methyl)amino)ethyl)amino)-4-oxobut-2-enoate] | 10 to 100 nM
2 | COC(=O)/C=C/C(=O)N1CCC(N(C)c2nc(OC[C@@H]3CCCN3C)nc3c2CCN(c2cccc4ccc(F)c(Cl)c24)C3)C1 (stereo partly drawn) [Example 2, methyl(E)-4-(3-((7-(8-chloro-7-fluoronaphthalen-1-yl)-2-(((S)-1-methylpyrrolidin-2-yl)methoxy)-5,6,7,8-tetrahydropyrido[3,4-d]pyrimidin-4-yl)(methyl)amino)pyrrolidin-1-yl)-4-oxobut-2-enoate] | 10 to 100 nM
3 | COC(=O)/C=C/C(=O)N1CC[C@@H](N(C)c2nc(OC[C@@H]3CCCN3C)nc3c2CCN(c2cccc4ccc(F)c(Cl)c24)C3)C1 [Example 3, methyl(E)-4-((R)-3-((7-(8-chloro-7-fluoronaphthalen-1-yl)-2-(((S)-1-methylpyrrolidin-2-yl)methoxy)-5,6,7,8-tetrahydropyrido[3,4-d]pyrimidin-4-yl)(methyl)amino)pyrrolidin-1-yl)-4-oxobut-2-enoate] | 10 to 100 nM
4 | COC/C=C/C(=O)N1CCC(N(C)c2nc(OC[C@@H]3CCCN3C)nc3c2CCN(c2cccc4cccc(Cl)c24)C3)C1 (stereo partly drawn) [Example 5, (E)-1-(3-((7-(8-chloronaphthalen-1-yl)-2-(((S)-1-methylpyrrolidin-2-yl)methoxy)-5,6,7,8-tetrahydropyrido[3,4-d]pyrimidin-4-yl)(methyl)amino)pyrrolidin-1-yl)-4-methoxybut-2-en-1-one] | > 500 nM
5 | CN1CCC[C@H]1COc1nc2c(c(N(C)[C@@H]3CCN(C(=O)/C=C/S(C)(=O)=O)C3)n1)CCN(c1cccc3cccc(Cl)c13)C2 [Example 9, (E)-1-((R)-3-((7-(8-chloronaphthalen-1-yl)-2-(((S)-1-methylpyrrolidin-2-yl)methoxy)-5,6,7,8-tetrahydropyrido[3,4-d]pyrimidin-4-yl)(methyl)amino)pyrrolidin-1-yl)-3-(methylsulfonyl)prop-2-en-1-one] | < 10 nM
6 | CCN(CCNC(=O)/C=C/C(=O)OC)c1nc(OC[C@@H]2CCCN2C)nc2c1CCN(c1cccc3cccc(Cl)c13)C2 [Example 12, methyl(S,E)-4-((2-((7-(8-chloronaphthalen-1-yl)-2-((1-methylpyrrolidin-2-yl)methoxy)-5,6,7,8-tetrahydropyrido[3,4-d]pyrimidin-4-yl)(ethyl)amino)ethyl)amino)-4-oxobut-2-enoate] | > 500 nM
7 | COC(=O)/C=C/C(=O)NCCN(C)c1nc(OCC23CCCN2CCC3)nc2c1CCN(c1cccc3cccc(Cl)c13)C2 [Example 13, Methyl(E)-4-((2-((7-(8-chloronaphthalen-1-yl)-2-((tetrahydro-1H-pyrrolizin-7a(5H)-yl)methoxy)-5,6,7,8-tetrahydropyrido[3,4-d]pyrimidin-4-yl)(methyl)amino)ethyl)amino)-4-oxobut-2-enoate] | 10 to 100 nM
8 | COC(=O)/C=C/C(=O)NC1CCN(c2nc(OC[C@@H]3CCCN3C)nc3c2CCN(c2cccc4cccc(Cl)c24)C3)C1 (stereo partly drawn) [Example 14, methyl(E)-4-((1-(7-(8-chloronaphthalen-1-yl)-2-(((S)-1-methylpyrrolidin-2-yl)methoxy)-5,6,7,8-tetrahydropyrido[3,4-d]pyrimidin-4-yl)pyrrolidin-3-yl)amino)-4-oxobut-2-enoate] | > 500 nM
9 | CN1CCC[C@H]1COc1nc2c(c(N(C)[C@H]3CCN(C(=O)/C=C/S(C)(=O)=O)C3)n1)CCN(c1cccc3cccc(Cl)c13)C2 [Example 15, (E)-1-((S)-3-((7-(8-chloronaphthalen-1-yl)-2-(((S)-1-methylpyrrolidin-2-yl)methoxy)-5,6,7,8-tetrahydropyrido[3,4-d]pyrimidin-4-yl)(methyl)amino)pyrrolidin-1-yl)-3-(methylsulfonyl)prop-2-en-1-one] | < 10 nM
10 | CC(C)OC(=O)/C=C/C(=O)N1CC[C@@H](N(C)c2nc(OCC34CCCN3CCC4)nc3c2CCN(c2cccc4cccc(Cl)c24)C3)C1 [Example 18, isopropyl(R,E)-4-(3-((7-(8-chloronaphthalen-1-yl)-2-((tetrahydro-1H-pyrrolizin-7a(5H)-yl)methoxy)-5,6,7,8-tetrahydropyrido[3,4-d]pyrimidin-4-yl)(methyl)amino)pyrrolidin-1-yl)-4-oxobut-2-enoate] | < 10 nM
11 | C=CC(=O)N1CC[C@@H](N(C)c2nc(OCC34CCCN3CCC4)nc3c2CCN(c2cccc4cccc(Cl)c24)C3)C1 [Example 19, (R)-1-(3-((7-(8-chloronaphthalen-1-yl)-2-((tetrahydro-1H-pyrrolizin-7a(5H)-yl)methoxy)-5,6,7,8-tetrahydropyrido[3,4-d]pyrimidin-4-yl)(methyl)amino)pyrrolidin-1-yl)prop-2-en-1-one] | 10 to 100 nM
12 | CN(CCNC(=O)/C=C/C(=O)O)c1nc(OC[C@@H]2CCCN2C)nc2c1CCN(c1cccc3cccc(Cl)c13)C2 [Example 21, (S,E)-4-((2-((7-(8-chloronaphthalen-1-yl)-2-((1-methylpyrrolidin-2-yl)methoxy)-5,6,7,8-tetrahydropyrido[3,4-d]pyrimidin-4-yl)(methyl)amino)ethyl)amino)-4-oxobut-2-enoic acid] | > 500 nM

The remaining lines, values ahead:

Row | IC50 | SMILES
13 | > 500 nM | COC(=O)/C=C/C(=O)N1C[C@@H](N(C)c2nc(OC[C@@H]3CCCN3C)nc3c2CCN(c2cccc4cccc(Cl)c24)C3)C[C@@H]1C [Example 4, methyl(E)-4-((2S,4S)-4-((7-(8-chloronaphthalen-1-yl)-2-(((S)-1-methylpyrrolidin-2-yl)methoxy)-5,6,7,8-tetrahydropyrido[3,4-d]pyrimidin-4-yl)(methyl)amino)-2-methylpyrrolidin-1-yl)-4-oxobut-2-enoate]
14 | 10 to 100 nM | COC(=O)/C=C/C(=O)N1CCC(N(C)c2nc(OC[C@@H]3CCCN3C)nc3c2CCN(c2cccc4cccc(Cl)c24)C3)C1 (stereo partly drawn) [Example 6, methyl(E)-4-(3-((7-(8-chloronaphthalen-1-yl)-2-(((S)-1-methylpyrrolidin-2-yl)methoxy)-5,6,7,8-tetrahydropyrido[3,4-d]pyrimidin-4-yl)(methyl)amino)pyrrolidin-1-yl)-4-oxobut-2-enoate]
15 | > 500 nM | COC(=O)/C=C\C(=O)N1CCC(N(C)c2nc(OC[C@@H]3CCCN3C)nc3c2CCN(c2cccc4cccc(Cl)c24)C3)C1 (stereo partly drawn) [Example 7, methyl (Z)-4-(3-((7-(8-chloronaphthalen-1-yl)-2-(((S)-1-methylpyrrolidin-2-yl)methoxy)-5,6,7,8-tetrahydropyrido[3,4-d]pyrimidin-4-yl)(methyl)amino)pyrrolidin-1-yl)-4-oxobut-2-enoate]
16 | 100 to 500 nM | CN(c1nc(OC[C@@H]2CCCN2C)nc2c1CCN(c1cccc3cccc(Cl)c13)C2)C1CCN(C(=O)/C=C/C(=O)O)C1 (stereo partly drawn) [Example 8, (E)-4-(3-((7-(8-chloronaphthalen-1-yl)-2-(((S)-1-methylpyrrolidin-2-yl)methoxy)-5,6,7,8-tetrahydropyrido[3,4-d]pyrimidin-4-yl)(methyl)amino)pyrrolidin-1-yl)-4-oxobut-2-enoic acid]
17 | 10 to 100 nM | COC(=O)/C=C/C(=O)N1CC[C@@H](N(C)c2nc(OC[C@@H]3CCCN3C)nc3c2CCN(c2cccc4cccc(Cl)c24)C3)C1 [Example 10, methyl(E)-4-((R)-3-((7-(8-chloronaphthalen-1-yl)-2-(((S)-1-methylpyrrolidin-2-yl)methoxy)-5,6,7,8-tetrahydropyrido[3,4-d]pyrimidin-4-yl)(methyl)amino)pyrrolidin-1-yl)-4-oxobut-2-enoate]
18 | 10 to 100 nM | CC(C)OC(=O)/C=C/C(=O)N1CC[C@@H](N(C)c2nc(OC[C@@H]3CCCN3C)nc3c2CCN(c2cccc4cccc(Cl)c24)C3)C1 [Example 11, isopropyl(E)-4-((R)-3-((7-(8-chloronaphthalen-1-yl)-2-(((S)-1-methylpyrrolidin-2-yl)methoxy)-5,6,7,8-tetrahydropyrido[3,4-d]pyrimidin-4-yl)(methyl)amino)pyrrolidin-1-yl)-4-oxobut-2-enoate]
19 | 10 to 100 nM | COC(=O)/C=C/C(=O)N1CC(CN(C)c2nc(OC[C@@H]3CCCN3C)nc3c2CCN(c2cccc4cccc(Cl)c24)C3)C1 [Example 16, methyl(S,E)-4-(3-(((7-(8-chloronaphthalen-1-yl)-2-((1-methylpyrrolidin-2-yl)methoxy)-5,6,7,8-tetrahydropyrido[3,4-d]pyrimidin-4-yl)(methyl)amino)methyl)azetidin-1-yl)-4-oxobut-2-enoate]
20 | 10 to 100 nM | COC(=O)/C=C/C(=O)N1C[C@H](N(C)c2nc(OC[C@@H]3CCCN3C)nc3c2CCN(c2cccc4cccc(Cl)c24)C3)C[C@H]1C [Example 17, methyl(E)-4-((2R,4R)-4-((7-(8-chloronaphthalen-1-yl)-2-(((S)-1-methylpyrrolidin-2-yl)methoxy)-5,6,7,8-tetrahydropyrido[3,4-d]pyrimidin-4-yl)(methyl)amino)-2-methylpyrrolidin-1-yl)-4-oxobut-2-enoate]
21 | 10 to 100 nM | COC(=O)/C=C/C(=O)N1C[C@H](N(C)c2nc(OCC34CCCN3CCC4)nc3c2CCN(c2cccc4cccc(Cl)c24)C3)C[C@@H]1C [Example 20, methyl(E)-4-((2S,4R)-4-((7-(8-chloronaphthalen-1-yl)-2-((tetrahydro-1H-pyrrolizin-7a(5H)-yl)methoxy)-5,6,7,8-tetrahydropyrido[3,4-d]pyrimidin-4-yl)(methyl)amino)-2-methylpyrrolidin-1-yl)-4-oxobut-2-enoate]
